In patent US10000498B2, “Selective proton coupled folate transporter and folate receptor, and GARFTase inhibitor compounds and methods of using the same” (Duquesne University of the Holy Spirit, priority 2008, dated 2018):
Where two headings read alike, the source gives them in different places.

What was measured:
[1] = tested on: PC43-10 cells (hRFC-expressing Chinese hamster ovary); assay: Growth inhibition of hRFC-expressing PC43-10 CHO cells; assay type: cell-based
[2] = tested on: R2 CHO cells (hRFC- and FR-null); assay: Growth inhibition of hRFC- and FR-null R2 CHO cells; assay type: cell-based, Chinese hamster; settings: Cricetulus griseus, RPMI1640/10% dialyzed fetal bovine serum, mean of 2-3 experiments
[3] = tested on: RT16 cells (hFRα-expressing Chinese hamster ovary); assay: Growth inhibition of FR-expressing RT16 CHO cells, with or without folic acid; assay type: cell-based; settings: for IC50: Cricetulus griseus, RT16
[4] = tested on: KB human tumor cells (hRFC/FRα); assay: Growth inhibition of KB human tumor cells (Cell Titer-blue cytotoxicity screen), with or without folic acid; assay type: cell-based
[5] = target: T1, purified recombinant mouse GARFTase (Mus musculus, UniProt Q64737); assay: In vitro GARFTase inhibition assay; assay type: biochemical; settings: purified recombinant mouse GARFTase; mean IC50, SEM in parentheses
T1 sequence (Q64737 2-1010 limits assumed): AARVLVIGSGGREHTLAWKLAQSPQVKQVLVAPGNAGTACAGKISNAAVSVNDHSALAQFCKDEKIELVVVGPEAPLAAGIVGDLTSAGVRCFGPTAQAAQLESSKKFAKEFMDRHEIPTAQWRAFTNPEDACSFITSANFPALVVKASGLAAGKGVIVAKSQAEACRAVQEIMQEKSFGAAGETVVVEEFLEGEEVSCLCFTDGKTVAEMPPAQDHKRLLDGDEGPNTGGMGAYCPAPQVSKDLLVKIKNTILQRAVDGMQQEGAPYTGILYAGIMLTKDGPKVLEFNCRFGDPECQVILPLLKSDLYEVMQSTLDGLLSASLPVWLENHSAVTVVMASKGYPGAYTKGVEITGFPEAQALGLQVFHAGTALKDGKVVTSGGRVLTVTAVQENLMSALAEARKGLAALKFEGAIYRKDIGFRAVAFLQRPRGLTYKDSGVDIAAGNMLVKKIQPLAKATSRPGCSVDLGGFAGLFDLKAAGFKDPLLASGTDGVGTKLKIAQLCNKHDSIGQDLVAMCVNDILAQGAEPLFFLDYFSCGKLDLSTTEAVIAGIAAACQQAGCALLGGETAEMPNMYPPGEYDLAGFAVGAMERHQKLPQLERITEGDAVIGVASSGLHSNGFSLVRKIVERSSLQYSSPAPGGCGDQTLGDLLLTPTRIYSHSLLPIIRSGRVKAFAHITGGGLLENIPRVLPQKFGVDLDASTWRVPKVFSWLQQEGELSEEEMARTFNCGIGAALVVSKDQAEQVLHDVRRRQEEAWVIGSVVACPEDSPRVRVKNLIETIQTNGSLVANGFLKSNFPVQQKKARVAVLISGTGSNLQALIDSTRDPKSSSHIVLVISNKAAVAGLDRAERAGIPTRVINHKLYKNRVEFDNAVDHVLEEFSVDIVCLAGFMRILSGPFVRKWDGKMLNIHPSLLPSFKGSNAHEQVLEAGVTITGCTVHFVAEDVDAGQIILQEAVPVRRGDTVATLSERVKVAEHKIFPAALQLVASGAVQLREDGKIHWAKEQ

GARFTase = target: T2, GARFTase (Homo sapiens, UniProt P22102); assay: In situ GARFTase assay (14C-glycine incorporation into formyl glycinamide ribonucleotide); assay type: cell-based; settings: mean IC50, SEM in parentheses
T2 construct: In the in situ GARFTase assay, incorporation of ^14C-glycine into formyl glycinamide ribonucleotide was measured; endogenous in cells
T2 sequence (P22102 1-1010): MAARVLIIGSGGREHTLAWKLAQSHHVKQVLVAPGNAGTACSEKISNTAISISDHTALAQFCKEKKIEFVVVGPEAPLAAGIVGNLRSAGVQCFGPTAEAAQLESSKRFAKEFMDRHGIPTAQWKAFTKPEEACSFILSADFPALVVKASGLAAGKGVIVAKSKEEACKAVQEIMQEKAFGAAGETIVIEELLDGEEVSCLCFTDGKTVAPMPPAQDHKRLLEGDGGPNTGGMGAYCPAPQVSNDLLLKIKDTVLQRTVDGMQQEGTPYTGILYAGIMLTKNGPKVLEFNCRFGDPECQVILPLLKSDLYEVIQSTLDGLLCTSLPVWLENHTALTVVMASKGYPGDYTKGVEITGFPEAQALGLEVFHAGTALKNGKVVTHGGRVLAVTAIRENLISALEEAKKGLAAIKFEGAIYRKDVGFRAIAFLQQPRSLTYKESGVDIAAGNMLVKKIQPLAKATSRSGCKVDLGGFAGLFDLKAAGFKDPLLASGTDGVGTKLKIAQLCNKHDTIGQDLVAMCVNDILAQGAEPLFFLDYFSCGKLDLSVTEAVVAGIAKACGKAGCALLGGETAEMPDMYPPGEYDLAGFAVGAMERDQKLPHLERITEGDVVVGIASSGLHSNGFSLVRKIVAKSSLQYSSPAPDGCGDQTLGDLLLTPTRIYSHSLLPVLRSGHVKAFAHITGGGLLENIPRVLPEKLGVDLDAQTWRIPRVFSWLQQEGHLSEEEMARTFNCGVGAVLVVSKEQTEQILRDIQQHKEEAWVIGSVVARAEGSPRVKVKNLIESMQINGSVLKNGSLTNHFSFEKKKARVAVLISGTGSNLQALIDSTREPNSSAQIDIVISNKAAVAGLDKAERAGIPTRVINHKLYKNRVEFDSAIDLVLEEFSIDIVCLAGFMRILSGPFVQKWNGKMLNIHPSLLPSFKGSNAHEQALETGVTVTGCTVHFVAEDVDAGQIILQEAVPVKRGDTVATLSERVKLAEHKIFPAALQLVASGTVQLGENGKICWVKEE

FRα = FRα (Homo sapiens, UniProt P15328); assay: FRα binding affinity relative to folic acid; settings: folic acid set to 1
Sequence of FRα (P15328 25-234): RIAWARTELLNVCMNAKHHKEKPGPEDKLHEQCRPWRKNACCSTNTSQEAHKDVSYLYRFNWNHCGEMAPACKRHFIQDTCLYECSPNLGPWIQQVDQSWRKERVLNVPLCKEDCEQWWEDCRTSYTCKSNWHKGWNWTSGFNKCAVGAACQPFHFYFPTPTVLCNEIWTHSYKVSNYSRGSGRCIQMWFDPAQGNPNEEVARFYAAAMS

[6] = target: thymidylate synthase (TS) (Homo sapiens, UniProt P04818); settings: cited from earlier work
Sequence of thymidylate synthase (TS) (P04818 whole entry, species assumed): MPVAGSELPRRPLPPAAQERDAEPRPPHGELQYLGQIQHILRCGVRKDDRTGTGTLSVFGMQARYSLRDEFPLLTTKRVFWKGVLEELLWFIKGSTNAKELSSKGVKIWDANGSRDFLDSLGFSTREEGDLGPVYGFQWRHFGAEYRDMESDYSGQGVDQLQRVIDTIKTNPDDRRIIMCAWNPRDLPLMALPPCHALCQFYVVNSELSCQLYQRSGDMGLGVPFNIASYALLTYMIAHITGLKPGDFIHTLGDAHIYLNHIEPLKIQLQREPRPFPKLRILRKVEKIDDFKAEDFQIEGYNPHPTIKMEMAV

[7] = mouse, in vivo; cited from earlier work
[8] = tested on: R2/VC cells (vector control R2 CHO); assay: Growth inhibition of vector control R2 CHO cells (Cell TiterBlue, 96 h); assay type: cell-based, Chinese hamster; settings: Cricetulus griseus, read-out: Growth inhibition 50% inhibitory concentration, R2/VC
[9] = in vivo; cited from earlier work
[10] = Homo sapiens, RPMI1640/10% dialyzed fetal bovine serum, without folic acid, read-out: Growth inhibition (IC50, nM) hRFC/FRα KB
[11] = folate-free RPMI1640/10% dialyzed FBS, 25 nM leucovorin

For `Nc1nc2[nH]c(CCCCCc3ccc(C(=O)N[C@@H](CCC(=O)O)C(=O)O)s3)cc2c(=O)[nH]1` [AAG154360, (S)-2-({5-[5-(2-amino-4-oxo-4,7-dihydro-3H-pyrrolo[2,3-d]pyrimidin-6-yl)-pentyl]-thiophene-2-carbonyl}-amino)-pentanedioic acid], the IC50 ([1]; Cricetulus griseus, PC43-10, RPMI1640/10% dialyzed fetal bovine serum, mean of 2-3 experiments, read-out: Growth inhibition (IC50, nM) hRFC PC43-10) was over 1000 nM, the “Growth inhibition of hRFC-expressing PC43-10 cells (in words)” value ([1]; only RFC) was “Neither AAG154353 and AAG154360 showed appreciable growth inhibition” and the IC50 [2] was over 1000 nM. For the same molecule, the IC50 ([3]; RPMI1640/10% dialyzed fetal bovine serum, without folic acid, read-out: Growth inhibition (IC50, nM) hFRα RT16) was 2 nM, the IC50 ([3]; in the presence of an elevated concentration of folic acid, read-out: Growth inhibition (IC50, nM) hFRα RT16 (+FA)) was over 1000 nM and the “Growth inhibition / FR-targeted activity toward RT16 cells (in words)” value ([3]; cells expressing FRα) was “high level of FR-targeted activity”. For the same molecule, the IC50 [4, 10] was 3.4 nM, the IC50 ([4]; Homo sapiens, co-treatment with folic acid (200 nM), read-out: Growth inhibition (IC50, nM) hRFC/FRα KB (+FA)) was over 1000 nM and the “Effect of folic acid co-treatment on growth inhibition of KB cells” value ([4]; folic acid 200 nM) was “completely reversed growth inhibition”. The IC50 [5] was 3310 nM, the IC50 (GARFTase) was 7.65 nM and the “FRα binding affinity compared to folic acid” value (FRα) was “very high binding affinities”.
For `Nc1nc2[nH]c(CCC#Cc3ccc(C(=O)N[C@@H](CCC(=O)O)C(=O)O)s3)cc2c(=O)[nH]1` [AAG154468, (S)-2-({5-[4-(2-amino-4-oxo-4,7-dihydro-3H-pyrrolo[2,3-d]pyrimidin-6-yl)-but-1-ynyl]-thiophene-2-carbonyl}-amino)-pentanedioic acid], the IC50 [4, 10] was 122 nM and the melting point was 196 to 197 °C.
`Nc1nc2[nH]c(CCCCc3ccc(C(=O)N[C@@H](CCC(=O)O)C(=O)O)o3)cc2c(=O)[nH]1` [AAG154489, (S)-2-({5-[4-(2-amino-4-oxo-4,7-dihydro-3H-pyrrolo[2,3-d]pyrimidin-6-yl)-butyl]-furan-2-carbonyl}-amino)-pentanedioic acid] gave an IC50 [4, 10] of 0.3 nM.
In the case of `C#CCN(c1ccc(C(=O)N[C@@H](CCC(=O)N[C@H](CCC(=O)O)C(=O)O)C(=O)O)cc1)[C@H]1CCc2cc3nc(C)[nH]c(=O)c3cc21` [BGC638], the “Inhibition of thymidylate synthase (TS) within cells” value [6] is listed as “potently inhibit”.
For `C#CCN(c1ccc(C(=O)N[C@@H](CCC(=O)N[C@H](CCC(=O)O)C(=O)O)C(=O)O)cc1)[C@H]1CCc2cc3nc(CO)[nH]c(=O)c3cc21` [BGC945], the “Inhibition of thymidylate synthase (TS) within cells” value [6] is listed as “potently inhibit” and the “Toxicity to normal tissues in mice” value [7] is listed as “no toxicity to normal tissues”.
`Cc1nc2ccc3ccc(CNc4ccc5c(c4)CN([C@@H](CCC(=O)O)C(=O)O)C5=O)cc3c2c(=O)[nH]1` [GW1843U89, reference compound] gave an IC50 ([4]; RPMI1640/10% dialyzed fetal bovine serum, without folic acid, read-out: Growth inhibition (IC50, nM) hRFC/FRα KB) of 5.8 nM and an IC50 ([4]; co-treatment with folic acid (200 nM), read-out: Growth inhibition (IC50, nM) hRFC/FRα KB (+FA)) of 32 nM.
In the case of `Nc1nc2c(c(=O)[nH]1)C[C@@H](CCc1ccc(C(=O)N[C@@H](CCC(=O)O)C(=O)O)cc1)CN2` [Lometrexol, lometrexol, reference compound], the IC50 [5] is given as 780 nM, the IC50 [8] is given as over 1000 nM and the “Toxicity in phase 1 studies” value [9] is given as “severe myelosupression”.
In the case of `CN(Cc1cnc2nc(N)nc(N)c2n1)c1ccc(C(=O)N[C@@H](CCC(=O)O)C(=O)O)cc1` [Methotrexate, methotrexate], the IC50 [8, 11] is reported as over 1000 nM.
Work on `Nc1nc2[nH]cc(CCc3ccc(C(=O)N[C@@H](CCC(=O)O)C(=O)O)cc3)c2c(=O)[nH]1` [Pemetrexed, pemetrexed, reference compound] yielded an IC50 [8] of 150 ± 22.5 nM.
In the case of `Cc1nc2ccc(CN(C)c3ccc(C(=O)N[C@@H](CCC(=O)O)C(=O)O)s3)cc2c(=O)[nH]1` [Raltitrexed, raltitrexed, reference compound], the IC50 [8, 11] is reported as 604 ± 53.6 nM.
